Data as given in patent US12138294B2, “Transgenic corn with antifungal peptide AGM182 (DN:0113.18)” (GENVOR, INC., priority 2018, dated 2024).
“Also recorded” adds a separate entry of the source. Bridge positions count the residues as written; N and C are the ends. Peptide text beside a SMILES is read from it.

Experiments:
porcine blood cells = assay: Hemolysis of porcine blood cells
[1] = system: maize (Zea mays L. Hi-II); assay: Phenotype of transgenic maize plants expressing AGM182; conditions: transgenic maize plants vs. isogenic negative or non-transformed control
[2] = system: pre-germinated conidia of A. flavus; conditions: read-out: IC50 against A. flavus; in vitro; pre-germinated conidia of A. flavus 70-GFP treated 60 min with 0-25 μM peptide; colonies counted after 24 h at 30° C.

| Compound | hemolysis of porcine blood cells (porcine blood cells; all concentrations of AGM182) | effect of transgenic expression on plant phenotype and seed weight [1] | IC50 [2] | hemolysis of porcine blood cells (porcine blood cells; 0.1% Triton-X, positive control) |
| --- | --- | --- | --- | --- |
| CC[C@H](C)[C@H](NC(=O)[C@@H]1CSSC[C@H](NC(=O)[C@H](CC(C)C)NC(=O)[C@H](CCCNC(=N)N)NC(=O)[C@H](C)NC(=O)[C@H](CCCCN)NC(=O)[C@@H](NC(=O)[C@@H](N)CCCCN)[C@@H](C)CC)C(=O)N[C@@H](CC(C)C)C(=O)NCC(=O)N[C@@H](CCCCN)C(=O)N[C@@H](Cc2ccccc2)C(=O)N1)C(=O)N[C@@H](CCCCN)C(=O)N[C@@H](C)C(=O)N[C@@H](CCCNC(=N)N)C(=O)N[C@@H](CC(C)C)C(=O)N[C@@H](CCCCN)C(=O)O [AGM182] (H-KIKARLCLGKFCIKARLK-OH; disulfide 7-12) | No hemolysis; also recorded: absence of hemolytic activity | did not exhibit any overt phenotype; also recorded: did not have any negative effect on plant phenotype and seed weight | 2.5 µM |  |
| CC[C@H](C)[C@@H]1NC(=O)CNC(=O)[C@H](CCCNC(=N)N)NC(=O)[C@H](Cc2ccc(O)cc2)NC(=O)[C@@H]2CSSC[C@H](NC1=O)C(=O)N[C@@H](Cc1ccc(O)cc1)C(=O)N[C@@H](CCCNC(=N)N)C(=O)N[C@@H](CCCNC(=N)N)C(=O)N[C@H](C(=O)N[C@@H](CCCNC(=N)N)C(N)=O)CSSC[C@H](NC(=O)[C@H](Cc1c[nH]c3ccccc13)NC(=O)[C@@H](N)CCCCN)C(=O)N[C@@H](Cc1ccccc1)C(=O)N[C@@H](CCCNC(=N)N)C(=O)N[C@@H](C(C)C)C(=O)N2 [tachyplesin1, reference compound] (H-KWCFRVCYRGICYRRCR-NH2; disulfide 3-16, 7-12) |  |  | 12.5 µM |  |
| Triton-X [reference compound] |  |  |  | 100% |
